In PubChem BioAssay (NCI):
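Growth conditions: 96-well plates. Treatment: test compound, 48 hours, 5 concentrations. Analysis: linear interpolation between bracketing concentrations; unreached endpoints set to highest concentration. Definition used: TGI = concentration required for complete inhibition of growth.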

Tests used:
Assay in all cases: NCI-60 cell line screen, 48 h
MALME-3M melanoma = tested on: MALME-3M melanoma
UACC-62 melanoma = tested on: UACC-62 melanoma
TK-10 renal = tested on: TK-10 renal
NCI-H226 lung = tested on: NCI-H226 lung
MOLT-4 leukemia = tested on: MOLT-4 leukemia
OVCAR-5 ovarian = tested on: OVCAR-5 ovarian
COLO 205 colon = tested on: COLO 205 colon
NCI-H522 lung = tested on: NCI-H522 lung
KM12 colon = tested on: KM12 colon
OVCAR-8 ovarian = tested on: OVCAR-8 ovarian
EKVX NSCLC = tested on: EKVX NSCLC
SK-OV-3 ovarian = tested on: SK-OV-3 ovarian
T-47D breast = tested on: T-47D breast
A549 NSCLC = tested on: A549 NSCLC
SF-268 CNS = tested on: SF-268 CNS
MDA-MB-435 = tested on: MDA-MB-435
UACC-257 melanoma = tested on: UACC-257 melanoma
HCT-15 colon = tested on: HCT-15 colon
SN12C renal = tested on: SN12C renal
HS 578T breast = tested on: HS 578T breast
DU-145 prostate = tested on: DU-145 prostate
HCT-116 colon = tested on: HCT-116 colon
BT-549 breast = tested on: BT-549 breast
IGROV1 ovarian = tested on: IGROV1 ovarian
CCRF-CEM leukemia = tested on: CCRF-CEM leukemia
SK-MEL-28 melanoma = tested on: SK-MEL-28 melanoma
MDA-N = tested on: MDA-N
SNB-19 CNS = tested on: SNB-19 CNS
ACHN renal = tested on: ACHN renal
U251 CNS = tested on: U251 CNS
UO-31 renal = tested on: UO-31 renal
MDA-MB-231 breast = tested on: MDA-MB-231 breast
M14 melanoma = tested on: M14 melanoma
SF-295 CNS = tested on: SF-295 CNS
RXF 393 renal = tested on: RXF 393 renal
HL-60(TB) leukemia = tested on: HL-60(TB) leukemia
OVCAR-4 ovarian = tested on: OVCAR-4 ovarian
SK-MEL-2 melanoma = tested on: SK-MEL-2 melanoma
HOP-62 NSCLC = tested on: HOP-62 NSCLC
K-562 leukemia = tested on: K-562 leukemia
NCI-H23 lung = tested on: NCI-H23 lung
SK-MEL-5 melanoma = tested on: SK-MEL-5 melanoma
SW-620 colon = tested on: SW-620 colon
SF-539 CNS = tested on: SF-539 CNS
LOX IMVI melanoma = tested on: LOX IMVI melanoma
PC-3 prostate = tested on: PC-3 prostate
OVCAR-3 ovarian = tested on: OVCAR-3 ovarian
HOP-92 NSCLC = tested on: HOP-92 NSCLC
NCI-H460 lung = tested on: NCI-H460 lung
NCI/ADR-RES ovarian = tested on: NCI/ADR-RES ovarian
SNB-75 CNS = tested on: SNB-75 CNS
786-0 renal = tested on: 786-0 renal
HT29 colon = tested on: HT29 colon
CAKI-1 renal = tested on: CAKI-1 renal

Structure (SMILES): Cc1c(S(=O)(=O)/N=C(\NO)Nc2ccc(Cl)cc2)sc2ccc(Cl)cc12
- TGI (MALME-3M melanoma): 33.8 µM
- TGI (UACC-62 melanoma): 29.8 µM
- TGI (TK-10 renal): 35.5 µM
- TGI (NCI-H226 lung): 38.1 µM
- TGI (MOLT-4 leukemia): > 100 µM
- TGI (OVCAR-5 ovarian): 33.3 µM
- TGI (COLO 205 colon): 30.9 µM
- TGI (NCI-H522 lung): 22.7 µM
- TGI (KM12 colon): 41.7 µM
- TGI (OVCAR-8 ovarian): 32.2 µM
- TGI (EKVX NSCLC): 25.1 µM
- TGI (SK-OV-3 ovarian): 31.2 µM
- TGI (T-47D breast): 89.9 µM
- TGI (A549 NSCLC): 33.8 µM
- TGI (SF-268 CNS): 35.6 µM
- TGI (MDA-MB-435): 33.7 µM
- TGI (UACC-257 melanoma): 33.3 µM
- TGI (HCT-15 colon): 30.6 µM
- TGI (SN12C renal): 35.5 µM
- TGI (HS 578T breast): 44.3 µM
- TGI (DU-145 prostate): 53.7 µM
- TGI (HCT-116 colon): 27.4 µM
- TGI (BT-549 breast): 31.7 µM
- TGI (IGROV1 ovarian): 27.5 µM
- TGI (CCRF-CEM leukemia): > 100 µM
- TGI (SK-MEL-28 melanoma): 32.9 µM
- TGI (MDA-N): 32.9 µM
- TGI (SNB-19 CNS): 35.2 µM
- TGI (ACHN renal): 28.5 µM
- TGI (U251 CNS): 31.5 µM
- TGI (UO-31 renal): 52.5 µM
- TGI (MDA-MB-231 breast): 42.7 µM
- TGI (M14 melanoma): 31.2 µM
- TGI (SF-295 CNS): 41 µM
- TGI (RXF 393 renal): 47.1 µM
- TGI (HL-60(TB) leukemia): 47.3 µM
- TGI (OVCAR-4 ovarian): 38.3 µM
- TGI (SK-MEL-2 melanoma): 34.4 µM
- TGI (HOP-62 NSCLC): 36.7 µM
- TGI (K-562 leukemia): > 100 µM
- TGI (NCI-H23 lung): 33.6 µM
- TGI (SK-MEL-5 melanoma): 27.4 µM
- TGI (SW-620 colon): 63.1 µM
- TGI (SF-539 CNS): 42.1 µM
- TGI (LOX IMVI melanoma): 32.2 µM
- TGI (PC-3 prostate): 31.1 µM
- TGI (OVCAR-3 ovarian): 25.8 µM
- TGI (HOP-92 NSCLC): 28.8 µM
- TGI (NCI-H460 lung): 76.8 µM
- TGI (NCI/ADR-RES ovarian): 37.9 µM
- TGI (SNB-75 CNS): 41.9 µM
- TGI (786-0 renal): 32.3 µM
- TGI (HT29 colon): 34.3 µM
- TGI (CAKI-1 renal): 34.3 µM
